Laboratory results taken from ChEMBL document CHEMBL6121023, “Discovery of proteolytically stable monocyte locomotion inhibitory factor peptide through systematic structural optimization” (Eur J Med Chem, 2025).
Calls of active or inactive are those of the source. The rule behind the calls is not given here. Positions of bridges follow the written chain, without caps; N, C: chain ends. Non-standard residues stand in square brackets, D forms with d. Residues, ends and D or L forms follow the SMILES beside them. ξ: configuration not given here. *: point of attachment. Propanoyl(3-(MeO(CH2CH2O)2)) = COCCOCCOCCC(=O)*; X1 = COCCOCCOCCOCCOCCOCCOCCC(=O)*; NMeQ = CN[C@@H](CCC(N)=O)C(=O)O; NMeN = CN[C@@H](CC(N)=O)C(=O)O; X2 = COCCOCCOCCOCCOCCC(=O)*; NMeC = CN[C@@H](CS)C(=O)O; NMeS = CN[C@@H](CO)C(=O)O; Heptanoyl = CCCCCCC(=O)*; Orn = NCCC[C@H](N)C(=O)O; ξNMeM = CNC(CCSC)C(=O)O; Pentanoyl = CCCCC(=O)*; ξM = CSCCC(N)C(=O)O

Legend:
RAW264.7 [1] = assay: Antiinflammatory activity in LPS-induced mouse RAW264.7 cells assessed as […] in IL-1beta expression at 1 microg/ml preincubated with compound for 24 hrs followed by LPS addition for 6 hrs by ELISA method; format: functional, cell-based; conditions: dose 1.0 µg/ml, time 30.0 hrs
RAW264.7 [2] = assay: Antiinflammatory activity in LPS-induced mouse RAW264.7 cells assessed as inhibition of TNF-alpha expression at 1 microg/ml preincubated with compound for 24 hrs followed by LPS addition for 6 hrs by ELISA method; format: functional, cell-based; conditions: dose 1.0 µg/ml, time 30.0 hrs
[3] = Cytotoxicity against mouse RAW264.7 cells assessed as cell viability at 1 microg/ml measured after 24 hrs by CCK-8 assay; format: toxicity, cell-based; conditions: at 1 µg/mL, read-out: Activity
RAW264.7 [4] = assay: Antiinflammatory activity in LPS-induced mouse RAW264.7 cells assessed as inhibition of IL-1beta expression at 1 microg/ml preincubated with compound for 24 hrs followed by LPS addition for 6 hrs by ELISA method; format: functional, cell-based; conditions: dose 1.0 µg/ml, time 30.0 hrs
RAW264.7 [5] = assay: Antiinflammatory activity in LPS-induced mouse RAW264.7 cells assessed as inhibition of NO expression at 1 microg/ml preincubated with compound for 24 hrs followed by LPS addition for 6 hrs by DAF-FM diacetate probe based analysis; format: functional, cell-based; conditions: dose 1.0 µg/ml, time 30.0 hrs
RAW264.7 [6] = assay: Antiinflammatory activity in LPS-induced mouse RAW264.7 cells assessed as inhibition of NO generation at 1 microg/ml preincubated with compound for 24 hrs followed by LPS addition for 6 hrs by DAF-FM diacetate probe based analysis; format: functional, cell-based; conditions: dose 1.0 µg/ml
Mus musculus [7] = assay: Anti-inflammatory activity against collagenase-induced osteoarthritis C57BL/6J mouse model assessed as reduction in mankin score in articular cartilage at 1 mg/kg, ip measured on day 14; format: functional, organism-based; conditions: time 14.0 day
Mus musculus [8] = assay: Anti-inflammatory activity against collagenase-induced osteoarthritis C57BL/6J mouse model assessed as improvement in cartilage thickness at 1 mg/kg, ip measured on day 14 by H and E staining based analysis; format: functional, organism-based; conditions: time 14.0 day
[9] = Stability in human serum measured upto 6 hrs by RP-HPLC analysis; format: ADME, cell-free
RAW264.7 [10] = assay: Antiinflammatory activity in LPS-induced mouse RAW264.7 cells assessed as effect on IL-1beta level at 1 microg/ml preincubated with compound for 24 hrs followed by LPS addition for 6 hrs by ELISA method; format: functional, cell-based; conditions: dose 1.0 µg/ml, time 30.0 hrs
RAW264.7 [11] = assay: Antiinflammatory activity in LPS-induced mouse RAW264.7 cells assessed as effect on TNF-alpha level at 1 microg/ml preincubated with compound for 24 hrs followed by LPS addition for 6 hrs by ELISA method; format: functional, cell-based; conditions: dose 1.0 µg/ml, time 30.0 hrs
RAW264.7 [12] = assay: Antiinflammatory activity in LPS-induced mouse RAW264.7 cells assessed as effect on NO level at 1 microg/ml preincubated with compound for 24 hrs followed by LPS addition for 6 hrs by DAF-FM diacetate probe based analysis; format: functional, cell-based; conditions: dose 1.0 µg/ml, time 30.0 hrs
RAW264.7 [13] = assay: Antiinflammatory activity in LPS-induced mouse RAW264.7 cells assessed as reduction in IL-1beta activity at 1 microg/ml preincubated with compound for 24 hrs followed by LPS addition for 6 hrs by ELISA method; format: functional, cell-based; conditions: dose 1.0 µg/ml, time 30.0 hrs

SMILES | Activity (RAW264.7 [1]) | Activity (RAW264.7 [2]) | viability at 24 h, 1 microg/ml [3] [%] | Activity (RAW264.7 [4]) | also measured
COCCOCCOCCOCCOCCSC[C@@H](NC(=O)[C@@H](CCC(N)=O)NC(=O)[C@H](N)CCSC)C(=O)N[C@H](CC(N)=O)C(=O)N[C@H](CO)C(N)=O | Active | Active | ~80 |  | 
CSCC[C@@H](N)C(=O)N[C@H]1CC(=O)NCCCC[C@@H](C(=O)N[C@@H](CO)C(N)=O)NC(=O)[C@H](CS)NC1=O |  |  | ~80 | inactive | 
CSCC[C@H](N)C(=O)N[C@H](CCC(N)=O)C(=O)N[C@@H](CS)C(=O)N[C@@H](CC(N)=O)C(=O)N[C@@H](CO)C(N)=O | inactive | Active | ~80 |  | Activity (RAW264.7 [5]): Active
CSCC[C@H](N)C(=O)N[C@@H](CCC(N)=O)C(=O)N[C@@H](CS)C(=O)N[C@H](CC(N)=O)C(=O)N[C@@H](CO)C(N)=O | inactive | Active | ~80 |  | Activity (RAW264.7 [5]): Active
CSCC[C@H](N)C(=O)N[C@@H](CCC(N)=O)C(=O)N[C@@H](CS)C(=O)N[C@@H](CC(N)=O)C(=O)N[C@@H](CO)C(N)=O |  | Active | 82.2 | Active | Activity (RAW264.7 [6]): Active; Activity (Mus musculus [7]): Active; Activity (Mus musculus [8]): Active; Stability [9]: Stable
CSCC[C@@H](N)C(=O)N[C@H]1CC(=O)NCCC[C@@H](C(=O)N[C@@H](CO)C(N)=O)NC(=O)[C@H](CS)NC1=O |  |  | ~80 | inactive | 
COCCOCCOCCSC[C@@H](NC(=O)[C@@H](CCC(N)=O)NC(=O)[C@H](N)CCSC)C(=O)N[C@H](CC(N)=O)C(=O)N[C@H](CO)C(N)=O | Active | Active | ~80 |  | 
COCCOCCOCCOCCOCCOCCOCCSC[C@@H](NC(=O)[C@@H](CCC(N)=O)NC(=O)[C@H](N)CCSC)C(=O)N[C@H](CC(N)=O)C(=O)N[C@H](CO)C(N)=O | Active | Active | 88.8 |  | Activity (RAW264.7 [6]): Active; Activity (Mus musculus [8]): Active
CSCC[C@@H](N)C(=O)N[C@@H](CCC(N)=O)C(=O)N[C@@H](CS)C(=O)N[C@@H](CC(N)=O)C(=O)N[C@@H](CO)C(N)=O |  | Active | 86.8 | Active | Activity (RAW264.7 [5]): Active; Activity (Mus musculus [8]): Active
CSCC[C@H](N)C(=O)N[C@@H](CCC(N)=O)C(=O)N[C@@H](CS)C(=O)N[C@@H](CC(N)=O)C(=O)N[C@H](CO)C(N)=O | inactive | Active | ~80 |  | Activity (RAW264.7 [5]): Active
CSCC[C@H](N)C(=O)N[C@@H](CCC(N)=O)C(=O)N[C@H](CS)C(=O)N[C@@H](CC(N)=O)C(=O)N[C@@H](CO)C(N)=O |  | Active | ~80 | Active | Activity (RAW264.7 [5]): Active
CSCC[C@H](NC(C)=O)C(=O)N[C@@H](CCC(N)=O)C(=O)N[C@@H](CS)C(=O)N[C@@H](CC(N)=O)C(=O)N[C@@H](CO)C(N)=O (Ac-MQCNS-NH2) |  |  | ~80 | Active | Activity (RAW264.7 [10]): Active; Activity (RAW264.7 [11]): Active; Activity (RAW264.7 [12]): Active
CSCC[C@H](N)C(=O)N[C@H]1CCC(=O)NCCCC[C@@H](C(=O)N[C@@H](CO)C(N)=O)NC(=O)[C@H](CS)NC1=O (H-MECKS-NH2; lactam 2-4) |  |  | ~80 | inactive | 
CSCC[C@H](N)C(=O)N[C@H]1CCC(=O)NCCC[C@@H](C(=O)N[C@@H](CO)C(N)=O)NC(=O)[C@H](CS)NC1=O (H-MEC[Orn]S-NH2; lactam 2-4) |  |  | ~80 | inactive | 
CSCC[C@H](N)C(=O)N[C@H]1CCCCNC(=O)C[C@@H](C(=O)N[C@@H](CO)C(N)=O)NC(=O)[C@H](CS)NC1=O (H-MKCDS-NH2; lactam 2-4) |  | inactive | ~80 | Active | 
CSCC[C@H](N)C(=O)N[C@H]1CCCCNC(=O)CC[C@@H](C(=O)N[C@@H](CO)C(N)=O)NC(=O)[C@H](CS)NC1=O (H-MKCES-NH2; lactam 2-4) |  |  | ~80 | Active | Activity (RAW264.7 [6]): inactive
CSCC[C@H](N)C(=O)N[C@H]1CCCNC(=O)C[C@@H](C(=O)N[C@@H](CO)C(N)=O)NC(=O)[C@H](CS)NC1=O (H-M[Orn]CDS-NH2; lactam 2-4) |  |  | ~80 | Active | 
CSCC[C@H](N)C(=O)N[C@H]1CCCNC(=O)CC[C@@H](C(=O)N[C@@H](CO)C(N)=O)NC(=O)[C@H](CS)NC1=O (H-M[Orn]CES-NH2; lactam 2-4) |  |  | 81.9 | Active | Activity (Mus musculus [8]): Active
CSCCC(N)C(=O)N[C@@H](CCC(N)=O)C(=O)N[C@@H](CS)C(=O)N[C@@H](CC(N)=O)C(=O)N(C)[C@@H](CO)C(N)=O (some centres undefined) (H-[ξM]QCN[NMeS]-NH2) | Active | Active | ~80 |  | Activity (RAW264.7 [6]): inactive
CSCCC(N)C(=O)N[C@@H](CCC(N)=O)C(=O)N[C@@H](CS)C(=O)N(C)[C@@H](CC(N)=O)C(=O)N[C@@H](CO)C(N)=O (some centres undefined) (H-[ξM]QC[NMeN]S-NH2) | Active | Active | ~80 |  | Activity (RAW264.7 [6]): inactive
CSCCC(N)C(=O)N[C@@H](CCC(N)=O)C(=O)N(C)[C@@H](CS)C(=O)N[C@@H](CC(N)=O)C(=O)N[C@@H](CO)C(N)=O (some centres undefined) (H-[ξM]Q[NMeC]NS-NH2) | Active | Active | ~80 |  | Activity (RAW264.7 [6]): inactive
CSCCC(N)C(=O)N(C)[C@@H](CCC(N)=O)C(=O)N[C@@H](CS)C(=O)N[C@@H](CC(N)=O)C(=O)N[C@@H](CO)C(N)=O (some centres undefined) (H-[ξM][NMeQ]CNS-NH2) | Active | Active | 82.9 |  | Activity (RAW264.7 [6]): Active; Activity (Mus musculus [8]): Active
CNC(CCSC)C(=O)N[C@@H](CCC(N)=O)C(=O)N[C@@H](CS)C(=O)N[C@@H](CC(N)=O)C(=O)N[C@@H](CO)C(N)=O (some centres undefined) (H-[ξNMeM]QCNS-NH2) | Active | Active | ~80 |  | Activity (RAW264.7 [6]): inactive
CCCCCCC(=O)N[C@@H](CCSC)C(=O)N[C@@H](CCC(N)=O)C(=O)N[C@@H](CS)C(=O)N[C@@H](CC(N)=O)C(=O)N[C@@H](CO)C(N)=O (Heptanoyl-MQCNS-NH2) |  |  | ~80 | Active | Activity (RAW264.7 [10]): Active; Activity (RAW264.7 [11]): Active; Activity (RAW264.7 [12]): Active
CCCCC(=O)N[C@@H](CCSC)C(=O)N[C@@H](CCC(N)=O)C(=O)N[C@@H](CS)C(=O)N[C@@H](CC(N)=O)C(=O)N[C@@H](CO)C(N)=O (Pentanoyl-MQCNS-NH2) |  |  | ~80 | Active | Activity (RAW264.7 [10]): Active; Activity (RAW264.7 [11]): Active; Activity (RAW264.7 [12]): Active
COCCOCCOCCOCCOCCOCCOCCC(=O)N[C@@H](CCSC)C(=O)N[C@@H](CCC(N)=O)C(=O)N[C@@H](CS)C(=O)N[C@@H](CC(N)=O)C(=O)N[C@@H](CO)C(N)=O (X1-MQCNS-NH2) |  |  | ~80 | Active | Activity (RAW264.7 [10]): Active; Activity (RAW264.7 [11]): Active; Activity (RAW264.7 [12]): Active
COCCOCCOCCOCCOCCC(=O)N[C@@H](CCSC)C(=O)N[C@@H](CCC(N)=O)C(=O)N[C@@H](CS)C(=O)N[C@@H](CC(N)=O)C(=O)N[C@@H](CO)C(N)=O (X2-MQCNS-NH2) |  |  | ~80 |  | Activity (RAW264.7 [10]): Active; Activity (RAW264.7 [11]): Active; Activity (RAW264.7 [12]): Active; Activity (RAW264.7 [13]): Active
COCCOCCOCCC(=O)N[C@@H](CCSC)C(=O)N[C@@H](CCC(N)=O)C(=O)N[C@@H](CS)C(=O)N[C@@H](CC(N)=O)C(=O)N[C@@H](CO)C(N)=O ({Propanoyl(3-(MeO(CH2CH2O)2))}-MQCNS-NH2) |  |  | ~80 |  | Activity (RAW264.7 [10]): Active; Activity (RAW264.7 [11]): Active; Activity (RAW264.7 [12]): Active; Activity (RAW264.7 [13]): Active
